Legend:
HeV = conditions: hamster, in vivo; cited from earlier work
[1] = tested on: JFH1/CsN6A4 infected Huh7 cells; test: Microarray gene expression in JFH1/CsN6A4 infected Huh7 cells; conditions: for Number of genes modulated by both HCQ and CQ, Down-regulated / Number of genes modulated by both HCQ and CQ, Up-regulated: 40 μM; for Number of genes modulated by both HCQ and CQ, Down-regulated: FC≦0.5; for Number of genes modulated by both HCQ and CQ, Up-regulated: FC≧2; for number of the 118 HCV modulated genes down-regulated (FC≦0.5) by both compounds / number of the 118 HCV modulated genes up-regulated (FC≧2) by both compounds / expression of genes involved in the IFN signaling: 48 hours treatment; for expression of genes involved in the IFN signaling: IFN 100IU
NiV = conditions: hamster, in vivo; cited from earlier work
HCV genotype 1b replicon = test: HCV RNA replication in Huh7 replicon cells (RT-PCR), single drugs and combinations; type: cell-based, hepatitis C virus; conditions: alone, 72 hours
Huh 5-2 cells = conditions: 6.6 μM; cited from earlier work
[2] = tested on: HCV replicon-Huh-7/neo cells; test: Replication levels of HCV replicon by NPTII quantification; conditions: 0.5, 1 or 10 μM, 72 hours
[3] = tested on: Huh7 harboring replicon cells; test: Microarray gene expression in Huh7 harboring replicon cells; type: cell-based, Human; conditions: 10 μM
replicon cells = test: Cytotoxicity, MTS assay of replicon cells; conditions: tested doses, 72 hours
[4] = after either 12 hours or 48 hours of treatment
[5] = cut-off at 12 hours and 24 hours
[6] = 48 h of antiviral treatment, vs untreated infected cells

Compound: CCN(CC)CCCC(C)Nc1ccnc2cc(Cl)ccc12 (stereo not drawn) [CQ, chloroquine]
- protection of hamsters (HeV): did not protect hamsters
- Number of genes modulated by both HCQ and CQ, Down-regulated ([1]; 12 h): 9
- Number of genes modulated by both HCQ and CQ, Up-regulated ([1]; 12 h): 38
- Number of genes modulated by both HCQ and CQ, Down-regulated ([1]; 48 h): 262
- Number of genes modulated by both HCQ and CQ, Up-regulated ([1]; 48 h): 24
- Number of genes Induced by JFH1 infection and Down-regulated by treatment ([1]; 48 h): 104
- Number of genes Induced by JFH1 infection and Up-regulated by treatment ([1]; 48 h): 1
- Number of genes Repressed by JFH1 infection and Down-regulated by treatment ([1]; 48 h): 2
- Number of genes Repressed by JFH1 infection and Up-regulated by treatment ([1]; 48 h): 11
- number of the 118 HCV modulated genes down-regulated (FC≦0.5) by both compounds [1]: 106
- number of the 118 HCV modulated genes up-regulated (FC≧2) by both compounds [1]: 12
- genes significantly up-regulated in common with HCQ and CQ [1, 4]: 62 genes
- protection of hamsters (NiV): did not protect hamsters
- HCV RNA replication (HCV genotype 1b replicon): inhibited HCV RNA replication

Compound: NC(=O)c1ncn([C@@H]2O[C@H](CO)[C@@H](O)[C@H]2O)n1 [Ribavirin, ribavirin]
- effect on death from viral disease (HeV): no significant effect
- delay of death from viral disease (NiV): approximately 5 days

Compound: CCN(CCO)CCCC(C)Nc1ccnc2cc(Cl)ccc12 (stereo not drawn) [HCQ, 2-[[4-[(7-chloro-4-quinolinyl)amino]pentyl]ethylamino]ethanol, reference compound]
- cell growth with respect to the untreated control (Huh 5-2 cells): more than 81%
- Number of genes modulated by both HCQ and CQ, Down-regulated ([1]; 12 h): 9
- Number of genes modulated by both HCQ and CQ, Up-regulated ([1]; 12 h): 38
- Number of genes modulated by both HCQ and CQ, Down-regulated ([1]; 48 h): 262
- Number of genes modulated by both HCQ and CQ, Up-regulated ([1]; 48 h): 24
- Number of genes Induced by JFH1 infection and Down-regulated by treatment ([1]; 48 h): 104
- Number of genes Induced by JFH1 infection and Up-regulated by treatment ([1]; 48 h): 1
- Number of genes Repressed by JFH1 infection and Down-regulated by treatment ([1]; 48 h): 2
- Number of genes Repressed by JFH1 infection and Up-regulated by treatment ([1]; 48 h): 11
- number of the 118 HCV modulated genes down-regulated (FC≦0.5) by both compounds [1]: 106
- number of the 118 HCV modulated genes up-regulated (FC≧2) by both compounds [1]: 12
- expression of genes involved in the IFN signaling [1]: None of the genes regulated by IFN were found to be modulated
- genes significantly down-modulated in common with HCQ and CQ [1, 4]: 271 genes
- genes significantly up-regulated in common with HCQ and CQ [1, 4]: 62 genes
- replication level of HCV replicon (% NPTII), number of HCV infected cells [2]: dose-dependent decrease
- HCV RNA replication (HCV genotype 1b replicon): inhibited HCV RNA replication in a dose dependent manner
- Number of genes transcriptionally modulated, Down-regulated ([3]; 6 hours): 5
- Number of genes transcriptionally modulated, Down-regulated ([3]; 12 hours): 30
- Number of genes transcriptionally modulated, Up-regulated ([3]; 12 hours): 7
- Number of genes transcriptionally modulated, Down-regulated ([3]; 24 hours): 63
- Number of genes transcriptionally modulated, Up-regulated ([3]; 24 hours): 23
- number of significantly repressed genes (FC≦0.5) among the 23 modulated genes [3, 5]: 20
- number of up-regulated genes (FC≧2) among the 23 modulated genes [3, 5]: 3

Compound: IFNα
- Fold Change, AMBRA1 [1, 6]: 0.4
- Fold Change, ATF2 [1, 6]: 0.4
- Fold Change, ATF3 [1, 6]: 0.2
- Fold Change, ATF4 [1, 6]: 0.5
- Fold Change, ATF7IP [1, 6]: 0.4
- Fold Change, ATG2A [1, 6]: 0.3
- Fold Change, ATG4B [1, 6]: 1.3
- Fold Change, ATG7 [1, 6]: 0.9
- Fold Change, ATG12 [1, 6]: 0.8
- Fold Change, BBC3 [1, 6]: 0.1
- Fold Change, BCL3 [1, 6]: 0.4
- Fold Change, BECN1 [1, 6]: 1.4
- Fold Change, BMF [1, 6]: 0.2
- Fold Change, CXCL5 [1, 6]: 1.3
- Fold Change, CYP1A1 [1, 6]: 0.4
- Fold Change, CYR61 [1, 6]: 0.2
- Fold Change, DAPK3 [1, 6]: 0.3
- Fold Change, DDIT3 [1, 6]: 0.1
- Fold Change, DDIT4 [1, 6]: 0.3
- Fold Change, DUSP1 [1, 6]: 0.1
- Fold Change, DUSP4 [1, 6]: 0.2
- Fold Change, DUSP8 [1, 6]: 0.1
- Fold Change, FOXO3 [1, 6]: 0.5
- Fold Change, GABARAPL1 [1, 6]: 0.4
- Fold Change, GADD45A [1, 6]: 0.2
- Fold Change, GADD45B [1, 6]: 0.1
- Fold Change, GADD45G [1, 6]: 0.3
- Fold Change, HRK [1, 6]: 0.7
- Fold Change, ICAM1 [1, 6]: 2.0
- Fold Change, IKBKAP [1, 6]: 1.3
- Fold Change, JUN [1, 6]: 0.2
- Fold Change, MAP1LC3B [1, 6]: 0.4
- Fold Change, MYC [1, 6]: 0.3
- Fold Change, NFKB1 [1, 6]: 0.8
- Fold Change, NFKBIA [1, 6]: 0.3
- Fold Change, NFKBIB [1, 6]: 0.4
- Fold Change, NFKBIE [1, 6]: 0.3
- Fold Change, NFKBIL2 [1, 6]: 1.5
- Fold Change, NKIRAS1 [1, 6]: 0.4
- Fold Change, NKIRAS2 [1, 6]: 1.0
- Fold Change, NKRF [1, 6]: 1.0
- Fold Change, PDRG1 [1, 6]: 0.6
- Fold Change, PIK3C3 [1, 6]: 0.5
- Fold Change, PRKAA1 [1, 6]: 0.3
- Fold Change, RELB [1, 6]: 0.4
- Fold Change, SESN2 [1, 6]: 0.2
- Fold Change, SIRT1 [1, 6]: 0.5
- Fold Change, SQSTM1 [1, 6]: 0.5
- Fold Change, STK11 [1, 6]: 0.9
- Fold Change, TANK [1, 6]: 1.2
- Fold Change, TNFRSF10B [1, 6]: 0.6
- Fold Change, TRAF2 [1, 6]: 0.7
- Fold Change, TRAF4 [1, 6]: 0.7
- Fold Change, TSC1 [1, 6]: 0.6
- Fold Change, TSC2 [1, 6]: 0.9
- Fold Change, UBD [1, 6]: 0.8
- Fold Change, ULK1 [1, 6]: 0.3
- expression of genes involved in the IFN signaling [1]: significantly increased
- HCV RNA replication (HCV genotype 1b replicon): inhibited HCV RNA replication in a dose dependent manner
- cell viability (replicon cells): not affected

— patent publication US8987302B2, “Treatment of hepatitis C virus related diseases using hydroxychloroquine or a combination of hydroxychloroquine and an anti-viral agent” (Panmed Ltd., priority 2010, dated 2015)
